The values that follow come from patent publication US20230285568A1, “ENGINEERING DIVERSE ANTIGEN-PRESENTING CELLS TO CONTROL ANTIGEN-SPECIFIC RESPONSES” (University of Maryland, Baltimore, priority 2020, published 2023).

For the assay, the system named is OVA-specific CD4+ T (OT-II) cells. The assay is described as follows: BMDC/B cell co-culture with OT-II cells, CFSE dilution and CD25 expression. As to conditions: BMDCs and B cells, 3-day co-culture. It is filed as cell-based, mouse. On the procedure:
T cell proliferation studies assays were carried out as described. The assay was carried out in T cell media. BMDCs (2×10^4/well) or B cells (2×10^4/well) were seeded into 96-well round-bottom cell culture plates and incubated with LAg-nano or PAg-nano at various particle concentrations and Ag loadings for 3 hours. Following incubation, all wells were washed to remove excess particles that had not been internalized by cells. Cells were co-cultured with 2×10^4/well of each OTI (CD8) and OTII (CD4) T cells). Groups receiving antigen in lieu of LAg-nano or PAg-nano received soluble OVA323-339 or SIINFEKL (SEQ ID NO:1; 100 ng/mL) at this time. After 3 days of co-culture, the T cells were collected, stained for viability, CD4, and CD8 and analyzed using flow cytometry. The extent of T cell proliferation was analyzed by CFSE dilution using flow cytometry. Ag processing kinetics in B cells was determined by loading with long GP100, KVPRNQDWL (SEQ ID NO:4; short GP100), or lipid-long GP100, […] (lipid-GP100; SEQ ID NO:3). […]
BMDCs and B cells loaded with unmodified ovalbumin (OVA) MHC II-restricted antigen (OVA323-339) or lipo-OVA323-339 were co-cultured with OVA-specific CD4^+ T (OT-II) cells for 3 days. CD25+ expression was detected and the proliferation and division indices were calculated. […] FIGS. 11E through 11H show quantitation of the proliferation and division indices of OT-II T cells. […]

As to “Lipo-OVA323-339: DSPE-PEG2000 lipid conjugated to OVA323-339 (ISQAVHAAHAEINEAGR; SEQ ID NO:2)”, the “APC internalization and MHC II-restricted presentation to OTII CD4+ T cells” value was “enables APC internalization and promotes MHC II-restricted presentation”.
